Measurements published in ChEMBL document CHEMBL1201862, “PubChem BioAssay data set” (2004).
The source made the active and inactive calls.

Assays:
[1] = system: HEK293; assay: Fluorescence-based counterscreen for potentiators or agonists of NPY-Y2: cell-based high-throughput dose response assay to identify inhibitors of cyclic nucleotide gated ion channel (CNGC) activity. In this assay, the parental HEK293 cell line transfected with a cyclic-nucleotide gated ion channel (CNGC)-based cAMP sensor is used to measure inhibition of isoproterenol-induced CNGC activity by test compound.; assay type: functional; details: Homo sapiens
[2] = target: T1, Neuropeptide Y receptor type 1 (Homo sapiens, UniProt P25929); assay: Fluorescence-based counterscreen for agonists of NPY-Y2: cell-based high-throughput dose response assay for agonists of NPY-Y1.; assay type: functional
T1 sequence (P25929 whole entry): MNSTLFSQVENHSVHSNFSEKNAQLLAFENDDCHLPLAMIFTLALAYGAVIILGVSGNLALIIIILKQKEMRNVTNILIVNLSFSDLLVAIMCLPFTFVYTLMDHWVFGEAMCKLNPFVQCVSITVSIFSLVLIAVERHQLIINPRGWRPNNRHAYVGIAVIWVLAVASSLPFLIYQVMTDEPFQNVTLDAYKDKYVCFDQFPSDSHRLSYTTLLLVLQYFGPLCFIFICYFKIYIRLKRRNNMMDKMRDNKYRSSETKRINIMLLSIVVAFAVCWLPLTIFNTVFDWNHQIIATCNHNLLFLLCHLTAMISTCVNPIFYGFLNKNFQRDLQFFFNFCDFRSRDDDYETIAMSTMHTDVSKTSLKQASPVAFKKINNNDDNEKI

[3] = target: T2, Heat shock factor protein 1 (Mus musculus, UniProt P38532); assay: HSF1 potentiators in luciferase reporter cells, confirmation, cell-based, NIH3T3, luminescence, dose retest (AID 435004); assay type: functional;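 also: stress induced by proteasome inhibitor MG132 added 30 min after compound; luciferase reporter driven by HSF1 response element in NIH3T3 cells; actives raise luminescence as potentiators of the MG132 stress response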
T2 sequence (P38532 whole entry): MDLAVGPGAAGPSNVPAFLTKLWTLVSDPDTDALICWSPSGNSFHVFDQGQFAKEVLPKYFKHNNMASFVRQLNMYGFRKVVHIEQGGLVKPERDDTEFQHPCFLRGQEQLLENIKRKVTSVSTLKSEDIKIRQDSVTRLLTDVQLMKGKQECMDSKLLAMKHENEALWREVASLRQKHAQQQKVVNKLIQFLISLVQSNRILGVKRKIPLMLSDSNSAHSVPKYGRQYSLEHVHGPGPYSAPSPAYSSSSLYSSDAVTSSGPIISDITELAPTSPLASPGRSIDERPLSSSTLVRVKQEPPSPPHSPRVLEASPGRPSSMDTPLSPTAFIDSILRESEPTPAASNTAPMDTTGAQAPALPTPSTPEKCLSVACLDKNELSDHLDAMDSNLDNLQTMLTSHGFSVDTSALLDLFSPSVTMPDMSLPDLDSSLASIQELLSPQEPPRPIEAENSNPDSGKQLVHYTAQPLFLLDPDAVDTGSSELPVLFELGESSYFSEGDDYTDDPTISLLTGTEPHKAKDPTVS

[4] = target: T3, Neuropeptide Y receptor type 2 (Homo sapiens, UniProt P49146); assay: Fluorescence-based cell-based high-throughput dose response assay for agonists of NPY-Y2. [Related pubchem assays: 1703 (Screening assay (CNGC inhibitors).), 1359 (Screening assay (NPY-Y2 potentiators or agonists).), 1304 (Screening assay (NPY-Y1 potentiators or agonists).), 1710 (Screening assay (NPY-Y2 agonists).), 1791 (Summary AID.)]; assay type: functional
T3 sequence (P49146 whole entry): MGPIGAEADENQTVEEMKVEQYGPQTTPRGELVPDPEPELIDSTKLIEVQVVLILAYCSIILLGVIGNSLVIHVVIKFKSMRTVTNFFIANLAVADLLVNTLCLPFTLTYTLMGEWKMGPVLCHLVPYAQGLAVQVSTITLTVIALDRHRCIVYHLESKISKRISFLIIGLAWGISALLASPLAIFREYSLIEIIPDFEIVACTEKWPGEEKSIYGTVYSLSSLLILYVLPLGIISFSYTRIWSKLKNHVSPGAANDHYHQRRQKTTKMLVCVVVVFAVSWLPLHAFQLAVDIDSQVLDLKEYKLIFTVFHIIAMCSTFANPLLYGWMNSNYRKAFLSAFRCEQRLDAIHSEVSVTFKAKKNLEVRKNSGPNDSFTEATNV

[5] = system: HEK293; assay: cells; assay type: functional, cell-based; details: Homo sapiens
[6] = system: HEK293; assay: cells; assay type: functional, cell-based; details: Homo sapiens; remark: listed apart in the source
[7] = system: HEK293; assay: NOD1 signaling inhibitors, primary screen, cell-based, luminescence, uHTS (AID 1578); assay type: functional; details: Homo sapiens
[8] = target: Nucleotide-binding oligomerization domain-containing protein 2 (Homo sapiens, UniProt Q9HC29); assay: NOD2 signaling inhibitors, cell-based, luminescence, uHTS, HEK293 (AID 1566); assay type: functional
Chain of Nucleotide-binding oligomerization domain-containing protein 2 (Q9HC29 whole entry, the tested form may be a part): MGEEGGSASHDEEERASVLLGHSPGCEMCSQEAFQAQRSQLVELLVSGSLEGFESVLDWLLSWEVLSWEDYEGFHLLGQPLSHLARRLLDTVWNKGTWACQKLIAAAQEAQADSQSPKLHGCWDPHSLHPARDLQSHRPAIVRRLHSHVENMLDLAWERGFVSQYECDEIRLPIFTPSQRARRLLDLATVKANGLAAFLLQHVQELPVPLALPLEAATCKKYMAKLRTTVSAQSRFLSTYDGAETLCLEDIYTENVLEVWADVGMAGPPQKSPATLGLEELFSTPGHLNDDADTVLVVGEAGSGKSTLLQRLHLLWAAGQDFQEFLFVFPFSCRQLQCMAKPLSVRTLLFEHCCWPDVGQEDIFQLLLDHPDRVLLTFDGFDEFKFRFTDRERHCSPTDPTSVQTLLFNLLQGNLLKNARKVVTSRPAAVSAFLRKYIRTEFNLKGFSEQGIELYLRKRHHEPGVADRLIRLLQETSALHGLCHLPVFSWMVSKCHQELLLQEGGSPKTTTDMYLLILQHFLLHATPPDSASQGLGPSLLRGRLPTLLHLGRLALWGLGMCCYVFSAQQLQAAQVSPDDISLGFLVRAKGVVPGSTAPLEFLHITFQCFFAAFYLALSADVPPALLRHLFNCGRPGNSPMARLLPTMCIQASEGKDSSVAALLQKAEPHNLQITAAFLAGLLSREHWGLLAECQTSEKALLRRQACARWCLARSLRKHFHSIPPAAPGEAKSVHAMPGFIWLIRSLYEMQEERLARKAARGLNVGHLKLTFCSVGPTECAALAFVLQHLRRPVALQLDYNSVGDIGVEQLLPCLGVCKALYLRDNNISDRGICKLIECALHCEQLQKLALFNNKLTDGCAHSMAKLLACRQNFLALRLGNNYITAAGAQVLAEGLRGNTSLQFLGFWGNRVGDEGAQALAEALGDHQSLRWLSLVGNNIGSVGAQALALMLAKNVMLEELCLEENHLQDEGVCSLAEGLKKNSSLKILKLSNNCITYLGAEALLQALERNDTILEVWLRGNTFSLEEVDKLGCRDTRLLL

[9] = target: Voltage-dependent T-type calcium channel subunit alpha-1H (Homo sapiens, UniProt O95180); assay type: functional;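 also: channel activity triggered by adding a high calcium stimulation buffer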
Chain of Voltage-dependent T-type calcium channel subunit alpha-1H (O95180 whole entry): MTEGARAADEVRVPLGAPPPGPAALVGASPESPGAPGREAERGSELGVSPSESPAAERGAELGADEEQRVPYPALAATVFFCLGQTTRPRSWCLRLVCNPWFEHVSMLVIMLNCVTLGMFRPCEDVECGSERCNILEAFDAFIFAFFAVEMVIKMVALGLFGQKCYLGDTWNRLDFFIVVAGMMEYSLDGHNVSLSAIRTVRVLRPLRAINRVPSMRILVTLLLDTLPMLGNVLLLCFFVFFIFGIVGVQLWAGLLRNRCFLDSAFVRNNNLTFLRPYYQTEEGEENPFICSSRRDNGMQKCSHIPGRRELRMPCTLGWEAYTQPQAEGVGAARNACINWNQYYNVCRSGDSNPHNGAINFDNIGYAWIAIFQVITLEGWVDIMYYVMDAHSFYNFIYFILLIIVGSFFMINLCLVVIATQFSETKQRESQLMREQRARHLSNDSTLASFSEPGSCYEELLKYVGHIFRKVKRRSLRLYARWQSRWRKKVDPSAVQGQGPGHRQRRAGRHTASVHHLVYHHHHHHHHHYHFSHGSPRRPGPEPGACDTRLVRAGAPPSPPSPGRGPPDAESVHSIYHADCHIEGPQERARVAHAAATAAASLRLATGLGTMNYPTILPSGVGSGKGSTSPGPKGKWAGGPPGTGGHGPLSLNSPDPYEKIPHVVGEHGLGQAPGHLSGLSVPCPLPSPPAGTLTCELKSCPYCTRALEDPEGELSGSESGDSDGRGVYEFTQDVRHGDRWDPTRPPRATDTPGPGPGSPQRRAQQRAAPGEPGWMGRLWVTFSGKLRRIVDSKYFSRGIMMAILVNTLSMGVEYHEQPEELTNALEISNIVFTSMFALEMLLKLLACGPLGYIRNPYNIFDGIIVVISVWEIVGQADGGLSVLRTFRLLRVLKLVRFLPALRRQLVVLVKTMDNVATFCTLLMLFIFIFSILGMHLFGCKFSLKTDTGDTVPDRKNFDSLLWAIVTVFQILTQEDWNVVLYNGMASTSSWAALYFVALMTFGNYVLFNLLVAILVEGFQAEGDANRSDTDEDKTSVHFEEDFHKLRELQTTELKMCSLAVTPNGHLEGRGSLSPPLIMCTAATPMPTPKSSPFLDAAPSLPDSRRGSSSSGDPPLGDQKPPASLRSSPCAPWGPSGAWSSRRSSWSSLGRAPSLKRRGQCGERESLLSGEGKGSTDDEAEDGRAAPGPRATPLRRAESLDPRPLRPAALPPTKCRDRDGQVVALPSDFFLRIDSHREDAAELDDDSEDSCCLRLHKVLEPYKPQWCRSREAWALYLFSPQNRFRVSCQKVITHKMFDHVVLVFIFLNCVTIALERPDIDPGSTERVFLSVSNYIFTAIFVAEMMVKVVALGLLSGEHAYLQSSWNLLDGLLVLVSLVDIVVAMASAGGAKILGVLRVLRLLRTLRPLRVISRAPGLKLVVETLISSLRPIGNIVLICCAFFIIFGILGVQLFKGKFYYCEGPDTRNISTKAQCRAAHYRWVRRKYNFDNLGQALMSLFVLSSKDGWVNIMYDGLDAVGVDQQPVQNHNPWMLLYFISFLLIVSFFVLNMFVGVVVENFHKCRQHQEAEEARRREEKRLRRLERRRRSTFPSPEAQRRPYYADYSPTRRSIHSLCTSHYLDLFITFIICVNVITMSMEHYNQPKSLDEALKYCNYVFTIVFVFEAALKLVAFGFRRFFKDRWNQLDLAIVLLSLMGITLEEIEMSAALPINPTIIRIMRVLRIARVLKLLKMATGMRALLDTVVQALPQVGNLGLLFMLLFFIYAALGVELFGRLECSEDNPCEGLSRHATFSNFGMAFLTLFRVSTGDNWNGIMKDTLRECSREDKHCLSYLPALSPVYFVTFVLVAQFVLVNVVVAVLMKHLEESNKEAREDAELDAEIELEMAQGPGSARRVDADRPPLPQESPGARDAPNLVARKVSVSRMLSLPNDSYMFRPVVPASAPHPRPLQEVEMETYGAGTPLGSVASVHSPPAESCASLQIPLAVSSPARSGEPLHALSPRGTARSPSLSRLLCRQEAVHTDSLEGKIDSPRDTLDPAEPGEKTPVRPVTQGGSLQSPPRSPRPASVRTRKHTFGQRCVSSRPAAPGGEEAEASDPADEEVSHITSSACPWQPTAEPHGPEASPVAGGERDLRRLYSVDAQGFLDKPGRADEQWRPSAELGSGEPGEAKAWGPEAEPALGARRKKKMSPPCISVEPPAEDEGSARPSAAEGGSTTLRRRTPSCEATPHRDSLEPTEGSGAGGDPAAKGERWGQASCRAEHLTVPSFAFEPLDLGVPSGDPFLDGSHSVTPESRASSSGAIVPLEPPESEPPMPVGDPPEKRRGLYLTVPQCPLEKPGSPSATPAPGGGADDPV

[10] = system: HEK293; assay: NOD2 signaling inhibitors in MDP-stimulated cells, cell-based, uHTS, luminescence (AID 2001); assay type: functional; details: Homo sapiens
[11] = system: HEK293; assay: cells; assay type: functional, cell-based; details: Homo sapiens; remark: listed apart in the source
[12] = target: DNA dC->dU-editing enzyme APOBEC-3A (Homo sapiens, UniProt P31941); assay: APOBEC3A DNA deaminase inhibitors, dose response, biochemical (AID 504722); assay type: functional
Chain of DNA dC->dU-editing enzyme APOBEC-3A (P31941 whole entry): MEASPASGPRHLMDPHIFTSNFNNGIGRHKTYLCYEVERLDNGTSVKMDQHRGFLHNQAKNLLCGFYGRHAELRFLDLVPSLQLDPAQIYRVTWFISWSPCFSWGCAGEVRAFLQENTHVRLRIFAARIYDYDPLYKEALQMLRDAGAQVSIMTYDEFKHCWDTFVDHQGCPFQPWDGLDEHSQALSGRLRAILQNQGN

[13] = target: DNA dC->dU-editing enzyme APOBEC-3G (Homo sapiens, UniProt Q9HC16); assay: Dose Response confirmation of small molecule APOBEC3G DNA Deaminase Inhibitors via a fluorescence-based single-stranded DNA deaminase assay. [Related pubchem assays (depositor defined):AID493012, AID493028]; assay type: functional
Chain of DNA dC->dU-editing enzyme APOBEC-3G (Q9HC16 whole entry): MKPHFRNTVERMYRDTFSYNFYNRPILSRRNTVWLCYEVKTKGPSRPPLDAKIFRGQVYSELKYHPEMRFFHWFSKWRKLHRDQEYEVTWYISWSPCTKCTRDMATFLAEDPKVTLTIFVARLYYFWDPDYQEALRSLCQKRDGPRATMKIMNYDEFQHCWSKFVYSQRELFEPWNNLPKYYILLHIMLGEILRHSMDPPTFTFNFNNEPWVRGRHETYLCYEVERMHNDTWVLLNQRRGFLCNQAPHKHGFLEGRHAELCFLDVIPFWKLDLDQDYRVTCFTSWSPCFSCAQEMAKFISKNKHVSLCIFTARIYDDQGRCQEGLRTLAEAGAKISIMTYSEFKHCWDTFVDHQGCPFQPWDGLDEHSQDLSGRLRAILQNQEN

[14] = cytotoxicity toward DRD oncogenic fibroblasts, dose response, cell-based, non-viral oncogenic, luminescence (AID 1934); assay type: functional; details: Homo sapiens
[15] = target: T4, Protein RecA (Mycobacterium tuberculosis, UniProt P9WHJ3); assay: Fluorescence Cell-Free Homogeneous Dose Retest to Identify Inhibitors of RecA-Intein Splicing Activity. [Related pubchem assays (depositor defined):AID2097, AID2223, AID489010, AID492950]; assay type: functional
T4 sequence (P9WHJ3 whole entry): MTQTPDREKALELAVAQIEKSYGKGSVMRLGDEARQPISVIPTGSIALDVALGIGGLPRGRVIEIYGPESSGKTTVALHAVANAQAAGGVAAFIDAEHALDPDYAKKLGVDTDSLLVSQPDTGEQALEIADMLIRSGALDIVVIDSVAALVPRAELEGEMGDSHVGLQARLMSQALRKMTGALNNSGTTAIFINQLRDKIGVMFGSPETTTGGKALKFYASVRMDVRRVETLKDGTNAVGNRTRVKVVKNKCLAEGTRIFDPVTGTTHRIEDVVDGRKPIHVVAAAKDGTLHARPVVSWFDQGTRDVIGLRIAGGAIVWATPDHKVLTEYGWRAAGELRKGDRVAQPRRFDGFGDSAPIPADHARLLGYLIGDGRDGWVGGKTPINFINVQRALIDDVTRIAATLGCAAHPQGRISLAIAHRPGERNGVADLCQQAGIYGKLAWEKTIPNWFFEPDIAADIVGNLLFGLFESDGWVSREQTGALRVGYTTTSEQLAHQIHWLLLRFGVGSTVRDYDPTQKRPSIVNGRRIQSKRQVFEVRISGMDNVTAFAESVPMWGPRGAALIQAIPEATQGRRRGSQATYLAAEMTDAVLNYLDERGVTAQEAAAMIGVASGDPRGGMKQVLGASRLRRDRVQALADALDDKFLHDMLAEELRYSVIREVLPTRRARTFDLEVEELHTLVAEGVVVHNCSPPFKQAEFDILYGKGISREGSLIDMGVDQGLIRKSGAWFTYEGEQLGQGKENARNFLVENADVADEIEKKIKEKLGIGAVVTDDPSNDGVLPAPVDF

[16] = non-specific cell cytotoxicity, dose response, cytotoxicity control for PAX8 inhibitor project, plate reader, dry powder samples (AID 743021); assay type: functional, cell-based
[17] = target: T5, Replicative DNA helicase DnaB (Mycobacterium tuberculosis, UniProt P9WMR3); assay: DnaB intein splicing inhibitors, dose response, biochemical, cell-free fluorescence (AID 449749); assay type: functional
T5 sequence (P9WMR3 whole entry): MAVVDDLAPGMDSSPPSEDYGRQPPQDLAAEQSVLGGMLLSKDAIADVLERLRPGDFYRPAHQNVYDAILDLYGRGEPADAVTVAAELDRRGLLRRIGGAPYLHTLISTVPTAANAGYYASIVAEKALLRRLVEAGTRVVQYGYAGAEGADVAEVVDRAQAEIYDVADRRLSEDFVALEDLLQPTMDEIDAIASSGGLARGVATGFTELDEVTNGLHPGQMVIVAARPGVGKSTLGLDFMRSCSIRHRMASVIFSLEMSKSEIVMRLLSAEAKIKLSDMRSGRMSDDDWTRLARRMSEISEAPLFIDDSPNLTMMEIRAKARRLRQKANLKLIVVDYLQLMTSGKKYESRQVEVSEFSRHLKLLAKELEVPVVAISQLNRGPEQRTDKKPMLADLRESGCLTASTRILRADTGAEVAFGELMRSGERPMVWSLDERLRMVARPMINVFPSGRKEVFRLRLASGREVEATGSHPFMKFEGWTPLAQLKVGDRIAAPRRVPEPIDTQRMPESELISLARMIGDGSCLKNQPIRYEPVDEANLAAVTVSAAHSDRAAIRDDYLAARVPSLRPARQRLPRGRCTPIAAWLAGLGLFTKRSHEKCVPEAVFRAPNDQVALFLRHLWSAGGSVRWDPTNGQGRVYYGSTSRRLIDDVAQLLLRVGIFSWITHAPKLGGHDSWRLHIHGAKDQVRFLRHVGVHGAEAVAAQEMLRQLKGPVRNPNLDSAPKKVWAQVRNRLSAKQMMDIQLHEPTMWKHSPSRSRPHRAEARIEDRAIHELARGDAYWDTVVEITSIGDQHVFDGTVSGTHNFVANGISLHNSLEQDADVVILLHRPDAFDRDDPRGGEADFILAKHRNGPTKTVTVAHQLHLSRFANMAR

[18] = system: BJ; assay: cells; assay type: functional, cell-based; details: Homo sapiens
[19] = Intein inhibitors as potential Tuberculosis drugs, a cytotoxicity screen. [Related pubchem assays (depositor defined):AID2221, AID2223, AID434968, AID435010, AID449749, AID449750, AID489010]; assay type: functional
[20] = system: BJ; assay: cytotoxicity toward BJ-TERT fibroblasts, dose response, cell-based, RAS-independent, luminescence (AID 1933); assay type: functional; details: Homo sapiens
[21] = system: BJ; assay: cytotoxicity toward BJ-TERT-LT-ST fibroblasts, dose response, cell-based, RAS-independent, luminescence (AID 1935); assay type: functional; details: Homo sapiens;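 also: BJ fibroblasts immortalized with TERT plus LT and ST oncogenes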
[22] = target: Paired box protein Pax-8 (Homo sapiens, UniProt Q06710); assay: inhibitors of PAX8-driven TPO luciferase reporter, dose response, RMG-I cells, cherry-pick (AID 687027); assay type: functional, cell-based;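 also: luciferase reporter driven by Pax8 target thyroperoxidase promoter measured by SteadyGlo luminescence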
Chain of Paired box protein Pax-8 (Q06710 whole entry): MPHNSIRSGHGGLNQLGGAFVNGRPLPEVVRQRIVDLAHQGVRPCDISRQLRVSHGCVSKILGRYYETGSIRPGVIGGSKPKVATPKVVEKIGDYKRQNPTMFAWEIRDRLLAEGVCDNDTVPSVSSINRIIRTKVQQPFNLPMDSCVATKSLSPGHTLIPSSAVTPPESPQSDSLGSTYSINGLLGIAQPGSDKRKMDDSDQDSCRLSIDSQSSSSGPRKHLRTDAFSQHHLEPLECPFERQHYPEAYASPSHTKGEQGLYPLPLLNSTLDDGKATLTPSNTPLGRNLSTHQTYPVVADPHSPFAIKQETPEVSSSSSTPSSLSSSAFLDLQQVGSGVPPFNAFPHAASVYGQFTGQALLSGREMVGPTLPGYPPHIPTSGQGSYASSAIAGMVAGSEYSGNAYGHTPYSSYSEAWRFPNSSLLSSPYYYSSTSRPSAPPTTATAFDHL
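For CC50 in this document: cells exposed to compound for 72 hours before luminescence readout.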

With `O=C(c1ccc(F)cc1F)C1CCN(c2ccc([N+](=O)[O-])cn2)CC1` the EC50 [1] was > 35.4 µM (not active), the EC50 [2] was > 35.4 µM (not active) and the EC50 [3] was > 260 µM (inactive). For the same compound, the EC50 [4] was 27.5 µM (not active).

With `Cc1nc2ccccc2c2oc(C(=O)NCC3COc4ccccc4O3)cc12` (configuration not stated) the IC50 [5] was 8.6 µM (active), the IC50 [6] was > 20 µM (inactive) and the EC50 [7] was 4.69 µM (active). The EC50 [8] was 4.75 µM (active), the EC50 [9] was 7.77 µM (active) and the IC50 [10] was 3.93 µM (inactive). The IC50 [11] was 4.14 µM (active).

In the case of `N#Cc1c(-c2ccncc2)c2c([nH]c1=S)CCCC2`, the IC50 [12] was > 100 µM (inactive) and the IC50 [13] was 2.21 µM (active).

With `CC(=O)n1cc(N(C(=O)CCl)c2ccccc2)c2ccccc21` the EC50 [14] was 0.912 µM (active), the EC50 [15] was 0.347 µM (active) and the AC50 [16] was 4.84 µM (active). For the same compound, the AC50 [17] was 2.3 µM (active), the EC50 [18] was 1.51 µM (inconclusive) and the CC50 [19] was 1.16 µM (active). The EC50 [20] was 0.654 µM (inconclusive), the EC50 [21] was 5.99 µM (active) and the AC50 [22] was 1.34 µM (active).
